Data: patent US20220016101A1 (ACADIA Pharmaceuticals Inc., priority 2018, published 2022)

Test system: patients with MDD and an inadequate response to an SSRI or SNRI
Assay: Massachusetts General Hospital Sexual Functioning Index (MGH-SFI), Study ACP-103-042
Format: in vivo, human
Set-up: key to MGH-SFI Ability to Get Sexually Aroused or Excited, treatment effect size / MGH-SFI Ability to Achieve Orgasm, treatment effect size / MGH-SFI Overall Sexual Satisfaction, treatment effect size: Cohen's d = LS mean difference (PIM vs PBO) / SD
Excerpt: “Massachusetts General Hospital Sexual Functioning Index (MGH-SFI)” is described, for instance, in Labbate and Lare, 2001, Psychother Psychosom. 70(4):221-225. This is a patient facing questionnaire that quantifies sexual dysfunction into 5 functional domains (“interest in sex,” “sexual arousal,” “ability to achieve orgasm,” “ability to maintain erection” (males only), and “sexual satisfaction”). Patients rate each item using a 6-point scale ranging from 1 (good function) to 6 (poor function). High scores indicate poor sexual functioning. […] The determination of the subject's status and eligibility for randomization in Stage 2 was made in a double-blind manner. […] Sexual functioning was assessed using the Massachusetts General Hospital Sexual Functioning Index or MGH-SFI (Labbate and Lare, 2001, Psychother Psychosom. 70(4):221-225). This is a patient facing questionnaire that quantifies sexual dysfunction into 5 functional domains (“interest in sex,” “sexual arousal,” “ability to achieve orgasm,” “ability to maintain erection” [malesonly], and “sexual satisfaction”). Patients rate each item using a 6-point scale ranging from 1 (good function) to 6 (poor function). The time frame for this scale is the past month. This scale was administered at baseline and Week 5 in both stages of the study. High scores indicate poor sexual functioning. In ACP-103-042 the mean scores for MGH-SFI at Baseline was calculated over all 5 domains for males and the 4 domains for females. For MGH-SFI (follow-up version) at Study Weeks 5 and 10, the mean was calculated in the same way as MGH-SFI at Baseline. […] Tables 10-27 summarize the detailed data of MGH-SFI individual items of the overall study group (Tables 10-15), the subgroup of age of <=50 (Tables 16-21) and the subgroup of age of >50 (Table 21-26). In Tables 9-26, ANCOVA=analysis of covariance; OC=observed cases; LSM=least squares mean; CI=confidence interval; SD=standard deviation; SE=standard error. Stage 1: Baseline=Study Week 0, Week 5=Study Week 5; Stage 2: Baseline=Study Week 5, Week 5=Study Weeks 10. LSM from the stage-specific ANCOVA analysis with the change from baseline as the outcome, treatment group as a factor, and the corresponding Baseline value as a covariate. 2-sided p-value for treatment difference from the stage-specific ANCOVA analysis. An treatment effect size (Cohen's d) is calculated using the formula: Effect Size=Least Square mean difference between PIM and PBO/SD. The corresponding 95% confidence interval for an effect size is calculated based on the theoretical probability distribution of the effect size. […] Tables 10-15 and 28-38 summarize the detailed data of MGH-SFI individual items of the overall study group (Tables 10-15), the female subgroup (Tables 33-37) and the male subgroup (Table 38-43). An treatment effect size (Cohen's d) is calculated using the formula: Effect Size=Least Square mean difference between PIM and PBO/SD. The corresponding 95% confidence interval for an effect size is calculated based on the theoretical probability distribution of the effect size. In Tables 10-15 and 28-38, ANCOVA=analysis of covariance; OC=observed cases; LSM=least squares mean; CI=confidence interval; SD=standard deviation; SE=standard error. Stage 1: Baseline=Study Week 0, Week 5=Study Week 5; Stage 2: Baseline=Study Week 5, Week 5=Study Weeks 10. LSM from the stage-specific ANCOVA analysis with the change from baseline as the outcome, treatment group as a factor, and the corresponding Baseline value as a covariate. 2-sided p-value for treatment difference from the stage-specific ANCOVA analysis. An treatment effect size (Cohen's d) is calculated using the formula: Effect Size=Least Square mean difference between PIM and PBO/SD. The corresponding 95% confidence interval for an effect size is calculated based on the theoretical probability distribution of the effect size.

[1] = Stage 1, Overall Study Group, 34 mg QD + SSRI/SNRI
[2] = Stage 1, Subgroup of <=50 Years
[3] = Stage 1, Subgroup of <=50 Years Old
[4] = Stage 1, Subgroup of <=50 Years Old, 34 mg QD + SSRI/SNRI

## CC(C)COc1ccc(CNC(=O)N(Cc2ccc(F)cc2)C2CCN(C)CC2)cc1 [pimavanserin, N-(4-Fluorophenylmethyl)-N-(1-methylpiperidin-4-yl)-N′-(4-(2-methylpropyloxy)phenylmethyl)carbamide]
Stage 1
  MGH-SFI Items mean change stratified by age >50 or ≤50 years vs placebo: differences were only significant for the age >50 years subgroup
  MGH-SFI treatment effect size for pimavanserin compared to placebo: 0.614
Stage 1, Overall Study Group
  MGH-SFI 01: Interest in Sex, Change from Baseline to Week 5 Mean (SE): −0.9 (0.23)
  MGH-SFI 01: Interest in Sex, Change from Baseline to Week 5 Median: −1.0
  MGH-SFI 01: Interest in Sex, Effect Size (Cohen's d): 0.483
  MGH-SFI 01: Interest in Sex, Week 5 Median: 4.0
  MGH-SFI 02: Ability to Get Sexually Aroused or Excited, Change from Baseline to Week 5 Mean (SE): −0.8 (0.17)
  MGH-SFI 02: Ability to Get Sexually Aroused or Excited, Change from Baseline to Week 5 Median: −1.0
  MGH-SFI 02: Ability to Get Sexually Aroused or Excited, Effect Size (Cohen's d): 0.560
  MGH-SFI 02: Ability to Get Sexually Aroused or Excited, Week 5 Median: 4.0
  MGH-SFI 03: Ability to Achieve Orgasm, Change from Baseline to Week 5 Mean (SE): −1.0 (0.24)
  MGH-SFI 03: Ability to Achieve Orgasm, Change from Baseline to Week 5 Median: 0.0
  MGH-SFI 03: Ability to Achieve Orgasm, Effect Size (Cohen's d): 0.609
  MGH-SFI 03: Ability to Achieve Orgasm, Week 5 Median: 4.0
  MGH-SFI 04: (Men) Ability to Get and Maintain an Erection, Change from Baseline to Week 5 Mean (SE): −0.3 (0.78)
  MGH-SFI 04: (Men) Ability to Get and Maintain an Erection, Change from Baseline to Week 5 Median: 0.0
  MGH-SFI 04: (Men) Ability to Get and Maintain an Erection, Effect Size (Cohen's d): 0.105
  MGH-SFI 04: (Men) Ability to Get and Maintain an Erection, Week 5 Median: 3.0
  MGH-SFI 05: Overall Sexual Satisfaction, Change from Baseline to Week 5 Mean (SE): −0.8 (0.25)
  MGH-SFI 05: Overall Sexual Satisfaction, Change from Baseline to Week 5 Median: 0.0
  MGH-SFI 05: Overall Sexual Satisfaction, Effect Size (Cohen's d): 0.524
  MGH-SFI 05: Overall Sexual Satisfaction, Week 5 Median: 4.0
  MGH-SFI 06: Overall Improvement Since Last Medication Change, Effect Size (Cohen's d): 0.539
  MGH-SFI 06: Overall Improvement Since Last Medication Change, Week 5 Median: 4.0
[1]
  MGH-SFI 01: Interest in Sex, Week 5 Mean (SE): 3.8 (0.27)
  MGH-SFI 02: Ability to Get Sexually Aroused or Excited, Week 5 Mean (SE): 3.7 (0.26)
  MGH-SFI 03: Ability to Achieve Orgasm, Week 5 Mean (SE): 3.8 (0.26)
  MGH-SFI 04: (Men) Ability to Get and Maintain an Erection, Week 5 Mean (SE): 3.9 (0.70)
  MGH-SFI 05: Overall Sexual Satisfaction, Week 5 Mean (SE): 3.9 (0.27)
  MGH-SFI 06: Overall Improvement Since Last Medication Change, Week 5 Mean (SE): 3.2 (0.17)
[2]
  MGH-SFI 01: Interest in Sex, Change from Baseline to Week 5 Mean (SE): −0.7 (0.45)
  MGH-SFI 01: Interest in Sex, Change from Baseline to Week 5 Median: 0.0
  MGH-SFI 01: Interest in Sex, Effect Size (Cohen's d): 0.347
  MGH-SFI 01: Interest in Sex, Week 5 Median: 3.0
[3]
  MGH-SFI 02: Ability to Get Sexually Aroused or Excited, Change from Baseline to Week 5 Mean (SE): −0.5 (0.27)
  MGH-SFI 02: Ability to Get Sexually Aroused or Excited, Change from Baseline to Week 5 Median: 0.0
  MGH-SFI 02: Ability to Get Sexually Aroused or Excited, Effect Size (Cohen's d): 0.447
  MGH-SFI 02: Ability to Get Sexually Aroused or Excited, Week 5 Median: 3.0
  MGH-SFI 03: Ability to Achieve Orgasm, Change from Baseline to Week 5 Mean (SE): −0.8 (0.36)
  MGH-SFI 03: Ability to Achieve Orgasm, Change from Baseline to Week 5 Median: 0.0
  MGH-SFI 03: Ability to Achieve Orgasm, Effect Size (Cohen's d): 0.352
  MGH-SFI 03: Ability to Achieve Orgasm, Week 5 Median: 4.0
[4]
  MGH-SFI 02: Ability to Get Sexually Aroused or Excited, Week 5 Mean (SE): 3.4 (0.42)
  MGH-SFI 03: Ability to Achieve Orgasm, Week 5 Mean (SE): 3.8 (0.42)
Stage 1, Subgroup of <=50 Years, 34 mg QD + SSRI/SNRI
  MGH-SFI 01: Interest in Sex, Week 5 Mean (SE): 3.5 (0.45)
Stage 1, female subgroup
  MGH-SFI Ability to Achieve Orgasm, treatment effect size: 0.749
  MGH-SFI Ability to Get Sexually Aroused or Excited, treatment effect size: 0.616
  MGH-SFI Interest in Sex, treatment effect size: 0.561
  MGH-SFI Overall Improvement Since Last Medication Change, treatment effect size: 0.634
  MGH-SFI Overall Sexual Satisfaction, treatment effect size: 0.627
Stage 1, patients with or without remission
  MGH-SFI effects vs placebo when assessed by MDD remission status: robust and significant effects
Stage 2
  MGH-SFI treatment effect size for pimavanserin compared to placebo: 0.412
Stage 2, Overall Study Group
  MGH-SFI 01: Interest in Sex, Change from Baseline to Week 5 Mean (SE): −0.4 (0.16)
  MGH-SFI 01: Interest in Sex, Change from Baseline to Week 5 Median: 0.0
  MGH-SFI 01: Interest in Sex, Effect Size (Cohen's d): 0.227
  MGH-SFI 01: Interest in Sex, Week 5 Median: 4.0
  MGH-SFI 02: Ability to Get Sexually Aroused or Excited, Change from Baseline to Week 5 Mean (SE): −0.4 (0.16)
  MGH-SFI 02: Ability to Get Sexually Aroused or Excited, Change from Baseline to Week 5 Median: 0.0
  MGH-SFI 02: Ability to Get Sexually Aroused or Excited, Effect Size (Cohen's d): −0.025
  MGH-SFI 02: Ability to Get Sexually Aroused or Excited, Week 5 Median: 4.5
  MGH-SFI 03: Ability to Achieve Orgasm, Change from Baseline to Week 5 Mean (SE): −0.4 (0.18)
  MGH-SFI 03: Ability to Achieve Orgasm, Change from Baseline to Week 5 Median: 0.0
  MGH-SFI 03: Ability to Achieve Orgasm, Effect Size (Cohen's d): 0.300
  MGH-SFI 03: Ability to Achieve Orgasm, Week 5 Median: 5.0
  MGH-SFI 04: (Men) Ability to Get and Maintain an Erection, Change from Baseline to Week 5 Mean (SE): −1.0 (0.41)
  MGH-SFI 04: (Men) Ability to Get and Maintain an Erection, Change from Baseline to Week 5 Median: −1.0
  MGH-SFI 04: (Men) Ability to Get and Maintain an Erection, Effect Size (Cohen's d): 0.701
  MGH-SFI 04: (Men) Ability to Get and Maintain an Erection, Week 5 Median: 4.0
  MGH-SFI 05: Overall Sexual Satisfaction, Change from Baseline to Week 5 Mean (SE): −0.7 (0.25)
  MGH-SFI 05: Overall Sexual Satisfaction, Change from Baseline to Week 5 Median: −0.5
